This test concerns the target T1, COX-2 (cyclooxygenase 2) (Homo sapiens, UniProt P35354).
T1 construct: gene PTGS2
In words: biochemical.

The IC50 is the concentration that inhibits the measured activity by half. Read a low IC50 as greater potency in that assay.

T1 sequence (P35354 18-604): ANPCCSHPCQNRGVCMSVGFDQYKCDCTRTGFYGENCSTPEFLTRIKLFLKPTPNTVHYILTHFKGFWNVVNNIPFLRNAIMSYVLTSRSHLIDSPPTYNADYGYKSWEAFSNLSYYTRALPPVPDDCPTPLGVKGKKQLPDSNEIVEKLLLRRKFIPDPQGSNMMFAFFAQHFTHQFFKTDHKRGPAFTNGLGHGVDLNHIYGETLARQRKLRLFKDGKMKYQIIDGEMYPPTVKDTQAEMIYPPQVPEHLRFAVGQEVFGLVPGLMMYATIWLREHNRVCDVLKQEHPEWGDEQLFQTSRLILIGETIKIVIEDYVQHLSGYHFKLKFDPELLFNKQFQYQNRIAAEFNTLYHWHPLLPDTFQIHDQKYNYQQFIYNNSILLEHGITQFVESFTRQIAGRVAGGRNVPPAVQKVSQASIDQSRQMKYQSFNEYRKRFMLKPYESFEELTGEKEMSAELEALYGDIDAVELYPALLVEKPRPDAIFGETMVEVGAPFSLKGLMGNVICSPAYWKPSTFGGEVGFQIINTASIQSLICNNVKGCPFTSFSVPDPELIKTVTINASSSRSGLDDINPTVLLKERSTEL

In turn, `COc1ccc2cc([C@H](C)C(=O)O)ccc2c1` [Naproxen] showed an IC50 of 13 µM.

The values are drawn from PMC9657391, “A Food-Grade Method for Enhancing the Levels of Low Molecular Weight Proanthocyanidins with Potentially High Intestinal Bioavailability” (International Journal of Molecular Sciences, 2022).
